Results on two molecules are retold here after patent US20150010479A1, “TREATMENT OF MICROBIAL INFECTIONS” (SINCLAIR PHARMACEUTICALS LIMITED, priority 2012, published 2015).

The structures appear in SMILES notation. Where “and” joins values, the source holds several entries; their conditions need not be identical. Equal values may be shown once. Read-outs that look alike come from different tables or passages of the source.

Assay [1] has as its system P. gingivalis. As to the kind of experiment: CPC and delmopinol combination (chequerboard assay), FICi/FBCi. To be noted: CPC + delmopinol, Standard broth. Format: cell-based, Porphyromonas gingivalis. As to the method:
(§1) 190 μl of normal broth (standard assays) or broth A was added to wells of a 96 well plate. […] 5 μl of each dilution of delmopinol was added to the appropriate wells of the 96 wells plate. The contents of each well were mixed thoroughly and then 100 μl volume was discarded.
(§2) Plates were then incubated as described above. […] Following incubation the plates were examined and growth/no growth recorded for every well sample (used for FBC determination).
(§3) FBCi were calculated in the same manner but using MBC data.
(§4) The FICi and FBCi were interpreted using the same parameters as set out above.

For assay [2], the system named is C. albicans. Described as above. It is filed as cell-based, Candida albicans. As to conditions: CPC + delmopinol. Here is the method: as §1, §2, §3, §4
For assay [3], the system named is Prv. nigrescence. Described as above. Format: cell-based, Prevotella nigrescence. As to the method:
as §1, §2, §3, §4

For another assay, the system named is S. aureus. As to the kind of experiment: MIC/MBC of CPC or delmopinol alone. It is filed as cell-based. As to conditions: Staphylococcus aureus. Here is the method: (§5) The final mixture was then sterilized by filtration using a […] PES filter (Nalgene, 169-0045).
(§6) Bacterial preparations were prepared using freshly grown cultures on solid media. Several loop-fulls of culture were transferred to 10-20 ml of the appropriate broth and vortexed gently until a fine suspension was produced. The initial OD600 nm of the cell suspensions was measured and adjusted to 0.2 to give a colony count of 1×10^8 cfu/ml. Final inocula were prepared by diluting the adjusted cell suspensions in appropriate broth as detailed below:
(§7) The broths were added to wells in columns 1, 11 (negative control, broth only) and 12 (positive control).
(§8) 100 μl of normal broth (standard assay) or broth A was added to wells in columns 2-10.
(§9) After mixing in column 10, 100 μl was discarded. 5 μl of the appropriate solvent was added to wells in column 12, mixed and 100 μl discarded.
(§10) Finally, 100 μl of inoculum (prepared in either normal broth or 2× broth A) was added to the wells in columns 1-10 and 12 and the plates were incubated as described above.

The test system of a further assay is E. coli. The assay can be described thus: MIC/MBC of CPC or delmopinol alone. It is filed as cell-based. To be noted: Escherichia coli, compound alone. As to the method: as §5, §6, §7, §8, §9, §10
For assay [4], the system named is P. gingivalis. The assay can be described thus: MIC/MBC of CPC or delmopinol alone. It is filed as cell-based. To be noted: Porphyromonas gingivalis. As to the method: as §5, §6, §7, §8, §9, §10
The test system of assay [5] is Prv. nigrescence. The assay can be described thus: MIC/MBC of CPC or delmopinol alone. To be noted: Prevotella, compound alone. It is filed as cell-based. Here is the method:
as §5, §6, §7, §8, §9, §10

The subject of assay [6] is C. albicans. The assay can be described thus: MIC/MBC of CPC or delmopinol alone. Format: cell-based. As to conditions: Candida albicans, compound alone. Here is the method:
as §5, §6, §7, §8, §9, §10

The test system of a further assay is E. faecalis. The assay can be described thus: MIC/MBC of CPC or delmopinol alone. It is filed as cell-based, Entercoccus faecalis. To be noted: Enterococcus faecalis, compound alone. Here is the method: as §5, §6, §7, §8, §9, §10
[7] abbreviates: Decapinol base (Broth A), no delmopinol or sodium benzoate present, read-out: Activity alone Decapinol base MBC.
[8] abbreviates: Decapinol base (Broth A), no delmopinol or sodium benzoate present, read-out: Activity alone Decapinol base MIC.
[9] abbreviates: Standard broth, read-out: Activity alone Standard MBC.
The mark [10] stands for this setting: Standard broth, read-out: Activity alone Standard MIC.

With `CCCCCCCCCCCCCCCC[n+]1ccccc1` [CPC, cetylpyridinium chloride], in the assay with P. gingivalis [1], the “Combination with delmopinol (FIC) Standard FICi” value is 0.62p. In addition, the results for the “Combination with delmopinol (FIC) Decapinol base FBCi” value in the assay with C. albicans [2] (Decapinol base (Broth A)) and in the assay with Prv. nigrescence [3] were 0.65p and 0.53p, respectively. The figures for the “Combination with delmopinol (FIC) Decapinol base FICi” value in the assay on C. albicans [2] (Decapinol base (Broth A)) and with Prv. nigrescence [3] were 0.99 and 0.5 s, respectively. In addition, the “Combination with delmopinol (FIC) Standard FBCi” value is 0.68p in the assay with C. albicans [2] (Standard broth) and 0.79 with Prv. nigrescence [3].
For the molecule `CCCC(CCC)CCCC1COCCN1CCO` (centres unmarked) [Delmopinol, 3-(4-propylheptyl)-4-(2-hydroxyethyl)morpholine], the minimum inhibitory concentration (MIC) (in general, the lowest concentration found to suppress growth) in the assay on S. aureus (read-out: Activity alone Standard MIC) is 125 µg/mL; with S. aureus (S. aureus, compound alone, Decapinol base (Broth A), no delmopinol or sodium benzoate present, read-out: Activity alone Decapinol base MIC) it was 250 µg/mL and 920 µM; with S. aureus (S. aureus, compound alone, Standard broth, read-out: Activity alone Standard MIC), 460 µM; with E. coli (setting [8]) it was 250 µg/mL and 920 µM; with E. coli (setting [10]), 250 µg/mL and 920 µM; in the assay on P. gingivalis [4] (read-out: Activity alone Decapinol base MIC) it was 31.2 µg/mL. For the same molecule, the minimal inhibitory concentration (MIC) is 1.2 µM with P. gingivalis [4] (P. gingivalis, compound alone, Decapinol base (Broth A), no delmopinol or sodium benzoate present, read-out: Activity alone Decapinol base MIC); 1.95 µg/mL in the assay on P. gingivalis [4] (P. gingivalis, compound alone, Standard broth, read-out: Activity alone Standard MIC); 31.2 µg/mL and 120 µM with Prv. nigrescence [5] (setting [8]); 62.5 µg/mL and 230 µM in the assay with Prv. nigrescence [5] (setting [10]); 120 µg/mL and 460 µM with C. albicans [6] (setting [8]); 500 µg/mL and 1840 µM in the assay on C. albicans [6] (setting [10]). For the same molecule, the minimal inhibitory concentration (MIC) is 250 µg/mL and 920 µM in the assay on E. faecalis (setting [8]); 250 µg/mL and 920 µM in the assay on E. faecalis (setting [10]). The MBC with S. aureus (S. aureus, compound alone, Decapinol base (Broth A), no delmopinol or sodium benzoate present, read-out: Activity alone Decapinol base MBC) was 250 µg/mL and 920 µM; in the assay on S. aureus (S. aureus, compound alone, Standard broth, read-out: Activity alone Standard MBC), 250 µg/mL and 920 µM; in the assay on E. coli (setting [7]), 250 µg/mL and 920 µM; in the assay on E. coli (setting [9]) it was 250 µg/mL and 920 µM; in the assay with P. gingivalis [4] (read-out: Activity alone Decapinol base MBC) it was 31.2 µg/mL; with P. gingivalis [4] (read-out: Activity alone Standard MBC), 31.2 µg/mL. Moreover, the MBC in the assay on P. gingivalis [4] (P. gingivalis, compound alone, Decapinol base (Broth A), no delmopinol or sodium benzoate present, read-out: Activity alone Decapinol base MBC) was 120 µM; in the assay on P. gingivalis [4] (P. gingivalis, compound alone, Standard broth, read-out: Activity alone Standard MBC) it was 120 µM; in the assay with Prv. nigrescence [5] (setting [7]), 125 µg/mL and 460 µM; with Prv. nigrescence [5] (setting [9]) it was 62.5 µg/mL and 230 µM; in the assay on C. albicans [6] (setting [7]) it was 120 µg/mL and 460 µM; in the assay with C. albicans [6] (setting [9]), 500 µg/mL and 1840 µM. Further, the MBC in the assay with E. faecalis (setting [7]) was 250 µg/mL and 920 µM; in the assay with E. faecalis (setting [9]), 250 µg/mL and 920 µM.
